Calls of active or inactive are those of the source. The rule behind the calls is not given here.

The nature of assay [1]: Binding affinity to iodine assessed as compound-iodine complex formation by spectrophotometry.
In assay [2] the test system is Rattus norvegicus. The assay can be described thus: Antithyroid activity in Rattus norvegicus Wistar (rat) assessed as cylindrical follicles in thyroid gland at 20 mg/kg, ip for 21 days by microscopic analysis. It is filed as functional, organism-based. Also on record: dose 20 mg/kg.
Assay [3] concerns Rattus norvegicus. As to the kind of experiment: Antithyroid activity in Rattus norvegicus Wistar (rat) assessed as little colloid material in epithelium of thyroid gland at 20 mg/kg, ip for 21 days by microscopic analysis. It is filed as functional, organism-based. Also on record: dose 20 mg/kg.
Assay [4] concerns Rattus norvegicus. As to the kind of experiment: Antithyroid activity in Rattus norvegicus Wistar (rat) assessed as thyroid stimulating hormone level in serum at 20 mg/kg, ip for 21 days measured after 21 days by ELISA (reference value: 1.83 +/- 0.307 microi.u/ml). It is filed as functional. To be noted: route intraperitoneal. Background: ELISA stands for enzyme-linked immunosorbent assay.

Assay [5] relates to Rattus norvegicus. The assay can be described thus: Antithyroid activity in Rattus norvegicus Wistar (rat) assessed as free thyroxin(T4) level in serum at 20 mg/kg, ip for 21 days measured after 21 days by radioimmunoassay (reference value: 33.171 +/- 0.474 pmol/l). The class given is functional. To be noted: route intraperitoneal.
Assay [6] has as its system Rattus norvegicus. The assay can be described thus: Antithyroid activity in Rattus norvegicus Wistar (rat) assessed as free triiodothyronine(T3) level in serum at 20 mg/kg, ip for 21 days measured after 21 days by radioimmunoassay (reference value: 8.007 +/- 0.167 pmol/l). The conditions noted are these: route intraperitoneal. The class given is functional.

For `Oc1[nH]c(S)nc2nc(S)nc1-2`, the result in assay [1], in assay [2] and in assay [3] was Active. The values for the Activity in assay [4], in assay [5] and in assay [6] were 8.126 uIU/ml, 20.086 pmol/L and 4.418 pmol/L, respectively.

For the molecule `Cn1ccnc1S` [METHIMAZOLE], the outcome in assay [2] and in assay [3] was Active. Also, the Activity in assay [4] came to 6.014 uIU/ml; in assay [5] it was 25.096 pmol/L; in assay [6], 5.162 pmol/L.

These data come from ChEMBL document CHEMBL3046151, “Assessment of antithyroid activity of 2,8-disulfanyl-1,9-dihydro-6H-purin-6-one in vitro and in vivo” (2012).
